Measurements as given in patent publication US20260217761A1, “ANTIMICROBIAL PEPTIDE RICH IN TRYPTOPHAN AND HAVING SELF-ASSEMBLY PROPERTIES, AND USE THEREOF” (NANOQURE BIOTECH (SHENZHEN) CO., LTD., priority 2022, published 2026).
Values after ≈ are worked out from the molar mass of the structure shown. Values joined by “and” are separate entries in the source; they are usually repeats but may differ in a detail not shown here. Equal entries are not always repeated. Where two headings read alike, the source gives them in different places. Residues, ends and D or L forms follow the SMILES beside them. No end group written: not given here.

What was measured:
P. aeruginosa = assay: Killing curve (bactericidal activity) against P. aeruginosa; assay type: cell-based, Pseudomonas aeruginosa
Experimental: (§1) • A. To determine the bactericidal ability of polypeptide Z4, Pseudomonas aeruginosa and Staphylococcus aureus were suspended in PBS until OD600 nm=0.4, then diluted 1000 times with fresh PBS and mixed in equal volumes. Polypeptide Z4 was added to the bacterial suspension at concentrations of 1×MIC and 2×MIC. […] After incubation at 37° C. for 18 h, the single colonies of the microorganisms were counted. The experiment was repeated 3 times and the average value was calculated.

S. aureus = assay: Killing curve (bactericidal activity) against S. aureus; assay type: cell-based, Staphylococcus aureus
Experimental: as §1

[1] = system: mixed biofilm of P. aeruginosa and S. aureus; assay: Anti-biofilm activity on formed mixed biofilm (crystal violet); assay type: cell-based; settings: for removal effect on the formed biofilm: 3 h
Experimental: • B. To investigate the anti-biofilm activity of polypeptide Z4, P. aeruginosa and S. aureus were grown overnight at 37° C. in tryptic soy broth medium until the logarithmic phase, and then diluted to 1×10^7 CFU/mL and 1×10^6 CFU/mL respectively, and mixed in equal amounts to prepare a mixed bacterial culture. Subsequently, 100 μL of the mixed bacterial suspension was incubated at 37° C. for 24 h to obtain a mixed biofilm. Then, antimicrobial peptides with a final concentration of 2-32 μM were added to a 96-well plate. After incubation at 37° C. for 3 h, the medium was discarded, and the 96-well plate was washed three times with PBS (pH=7.2). After drying at room temperature, 200 μL/well of […] crystal violet staining solution was added to the plate. After incubation at 37° C. for 30 minutes, it was rinsed three times with PBS. After air drying at room temperature, 200 μL/well of 95% ethanol was added and incubated at 37° C. for 30 min, and the absorbance was measured at 595 nm. A total of 3 experiments were set up, and each experiment was repeated 3 times.

various bacteria = assay: MIC against various bacteria (broad-spectrum antimicrobial activity); assay type: cell-based
Experimental: • A. The antimicrobial peptide was prepared into a certain stock solution for use. 0.01% acetic acid (containing 0.2% BSA) was used as the diluent, and a series of gradient antimicrobial peptide solutions were prepared sequentially by a two-fold dilution method. • B. 100 μL of the above-mentioned antimicrobial peptide stock solution was taken and placed in a 96-well cell culture plate. Then, an equal volume of the test bacterial solution (approximately 10^5 cells/mL) was added to each well. A positive control (containing the bacterial solution but no antimicrobial peptide) and a negative control (containing neither bacterial solution nor the peptide) were included, respectively. The test bacterial species include Pseudomonas aeruginosa (Pseudomonas aeruginosa PL1, Pseudomonas aeruginosa SP1), Staphylococcus aureus (Staphylococcus aureus 544, Staphylococcus aureus 103), Escherichia coli (Escherichia coli 729, Escherichia coli 112), Klebsiella Pneumoniae (Klebsiella Pneumoniae 106, Klebsiella Pneumoniae 727), Streptococcus pneumonia 383, Acinetobacter baumannii (Acinetobacter baumannii 946, Acinetobacter baumannii 780) (FIG. 1), or Pseudomonas aeruginosa (Pseudomonas aeruginosa PAO1), Staphylococcus aureus (Staphylococcus aureus SP1), and a mixed solution of the above two bacteria (FIG. 2). • C. The culture plate was placed in a constant temperature incubator at 37° C. for 20 h. The minimum inhibitory concentration is determined as the condition where no turbidity is observed at the bottom of the well with naked eyes.
• A. The polypeptide Z4 composed entirely of dextrorotatory amino acids is called the dextrorotatory isomer of polypeptide Z4. The polypeptide Z4-D was prepared into a certain stock solution for use. […] The minimum inhibitory concentration is determined as the condition where no turbidity is observed at the bottom of the well with naked eyes.

[2] = system: mixed bacterial solution of Pseudomonas aeruginosa and Staphylococcus aureus; assay type: cell-based, Pseudomonas aeruginosa PAO1 and Staphylococcus aureus SP1
Experimental: • A. The antimicrobial peptide was prepared into a certain stock solution for use. 0.01% acetic acid (containing 0.2% BSA) was used as the diluent, and a series of gradient antimicrobial peptide solutions were prepared sequentially by a two-fold dilution method. • B. 100 μL of the above-mentioned antimicrobial peptide stock solution was taken and placed in a 96-well cell culture plate. Then, an equal volume of the test bacterial solution (approximately 10^5 cells/mL) was added to each well. A positive control (containing the bacterial solution but no antimicrobial peptide) and a negative control (containing neither bacterial solution nor the peptide) were included, respectively. […] The culture plate was placed in a constant temperature incubator at 37° C. for 20 h. The minimum inhibitory concentration is determined as the condition where no turbidity is observed at the bottom of the well with naked eyes.

[3] = Self-assembly observed by scanning electron microscopy (SEM); assay type: physicochemical; settings: in phosphate-buffered saline (PBS) (pH=7.2)
Experimental: Without being bound by any theory, it is deduced that the reason why WW++W++WW has better self-assembly activity and MIC than +++WWW+++ is based on the WW at both ends of the peptide, rather than the number of positively charged amino acids (K and/or R). • B. Observation of polypeptide Z4 by scanning electron microscopy (SEM): To prepare SEM samples for observing the self-assembly of the polypeptide, 10 μL of the polypeptide was placed on tin foil that had been ultrasonically treated for 30 min.
After drying, the samples were sputter-coated with gold. All samples were observed using Gimini SEM 500.

[4] = system: P. aeruginosa in the catheter biofilm; assay: In vivo bactericidal activity in the catheter biofilm, P. aeruginosa; settings: mice, versus PBS control
[5] = system: S. aureus in the catheter biofilm; assay: In vivo bactericidal activity in the catheter biofilm, S. aureus; settings: mice, versus PBS control
IL-6 = IL-6 content in the skin tissue at the infected site; assay type: in vivo; settings: mice
inflammatory cells = assay: Inflammatory cells in sections of skin tissue at the infected site; assay type: in vivo; settings: mice, versus PBS control
[6] = system: mixed bacterial solution of P. aeruginosa PAO1 and S. aureus SP1; assay type: cell-based
Experimental: After ultrasonic treatment of polypeptide Z4 and polypeptide Z4-D for 30 min, they were placed at room temperature for 2 h to promote their self-assembly. Subsequently, proteinase K with a final concentration of 0.2 g/mL was mixed with the polypeptide solution (final concentration of 640 μM) and incubated at 37° C. for 0, 30, 60, 90 or 120 min respectively. Then, according to the scheme described in Example 2, the MICs of the polypeptides against the mixed bacterial solution of P. aeruginosa PAO1 and S. aureus SP1 under different treatment conditions were determined.

With Gentamicin the “survival number of P. aeruginosa” value (P. aeruginosa; 1×MIC, 0 min) was 140000 CFU/mL and 126000 CFU/mL and 130000 CFU/mL and 122000 CFU/mL, the “survival number of P. aeruginosa” value (P. aeruginosa; 1×MIC, 15 min) was 116000 CFU/mL and 120000 CFU/mL and 140000 CFU/mL and 108000 CFU/mL and the “survival number of P. aeruginosa” value (P. aeruginosa; 1×MIC, 30 min) was 104000 CFU/mL and 126000 CFU/mL and 110000 CFU/mL. The “survival number of P. aeruginosa” value (P. aeruginosa; 1×MIC, 60 min) was 112000 CFU/mL and 92000 CFU/mL and 106000 CFU/mL and 110000 CFU/mL, the “survival number of P. aeruginosa” value (P. aeruginosa; 1×MIC, 120 min) was 30000 CFU/mL and 52000 CFU/mL and 54000 CFU/mL and the “survival number of P. aeruginosa” value (P. aeruginosa; 1×MIC, 300 min) was 0 CFU/mL. For the same compound, the “survival number of P. aeruginosa” value (P. aeruginosa; 2×MIC, 0 min) was 142000 CFU/mL and 134000 CFU/mL and 122000 CFU/mL and 106000 CFU/mL, the “survival number of P. aeruginosa” value (P. aeruginosa; 2×MIC, 15 min) was 166000 CFU/mL and 104000 CFU/mL and 136000 CFU/mL and 128000 CFU/mL and the “survival number of P. aeruginosa” value (P. aeruginosa; 2×MIC, 30 min) was 116000 CFU/mL and 154000 CFU/mL and 126000 CFU/mL and 130000 CFU/mL. The “survival number of P. aeruginosa” value (P. aeruginosa; 2×MIC, 60 min) was 92000 CFU/mL and 82000 CFU/mL and 70000 CFU/mL and 68000 CFU/mL, the “survival number of P. aeruginosa” value (P. aeruginosa; 2×MIC, 240 min) was 0 CFU/mL and the “survival number of S. aureus” value (S. aureus; 1×MIC, 30 min) was 2000 CFU/mL and 4000 CFU/mL. The “survival number of S. aureus” value (S. aureus; 1×MIC, 180 min) was 2000 CFU/mL and 4000 CFU/mL, the “survival number of S. aureus” value (S. aureus; 1×MIC, 360 min) was 0 CFU/mL and the “survival number of S. aureus” value (S. aureus; 2×MIC, 300 min) was 0 CFU/mL. The “survival number of S. aureus” value (S. aureus; 2×MIC, 360 min) was 0 CFU/mL, the “removal effect on the formed biofilm” value ([1]; concentration 2 μM) was 90.78% and 99.18% and 100% and the “removal effect on the formed biofilm” value ([1]; concentration 4 μM) was 67.84% and 74.15% and 105.2663%. For the same compound, the “removal effect on the formed biofilm” value ([1]; concentration 8 μM) was 86.98% and 97.37% and 78.85%, the “removal effect on the formed biofilm” value ([1]; concentration 16 μM) was 64.53% and 107.33% and 74.22% and the “concentration at which more than 50% of the biofilm is removed” value ([1]; mixed biofilm) was 32 µM.

For “KWKWWWKWK-NH2 [Z1, centrally symmetric 9-peptide of tryptophan and lysine]”, the broad-spectrum antimicrobial activity (various bacteria) was “good broad-spectrum antimicrobial activity”.

For `NCCCC[C@H](NC(=O)[C@H](CCCCN)NC(=O)[C@H](Cc1c[nH]c2ccccc12)NC(=O)[C@H](CCCCN)NC(=O)[C@H](CCCCN)NC(=O)[C@H](Cc1c[nH]c2ccccc12)NC(=O)[C@@H](N)Cc1c[nH]c2ccccc12)C(=O)N[C@@H](Cc1c[nH]c2ccccc12)C(=O)N[C@@H](Cc1c[nH]c2ccccc12)C(N)=O` [Z4, WWKKWKKWW-NH2] (H-WWKKWKKWW-NH2; N-terminus assumed), the “minimum inhibitory concentration (MIC)” value [2] was 4 µM (≈ 5.84 µg/mL), the “minimum inhibitory concentration (MIC)” value ([2]; mixed bacterial solution of Pseudomonas aeruginosa and Staphylococcus aureus) was 4 µM (≈ 5.84 µg/mL) and the broad-spectrum antimicrobial activity (various bacteria) was “good broad-spectrum antimicrobial activity”. The “average particle size of self-assembled nanomicelle” value [3] was 174.62 nanometers, the “time within which all P. aeruginosa were killed” value (P. aeruginosa; 1×MIC (4 μM)) was at most 60 min and the “survival number of P. aeruginosa” value (P. aeruginosa; 1×MIC, 0 min) was 134000 CFU/mL and 112000 CFU/mL and 104000 CFU/mL. The “survival number of P. aeruginosa” value (P. aeruginosa; 1×MIC, 60 min) was 0 CFU/mL, the “survival number of P. aeruginosa” value (P. aeruginosa; 1×MIC, 120 min) was 0 CFU/mL and the “survival number of P. aeruginosa” value (P. aeruginosa; 1×MIC, 180 min) was 0 CFU/mL. For the same compound, the “survival number of P. aeruginosa” value (P. aeruginosa; 1×MIC, 240 min) was 0 CFU/mL, the “survival number of P. aeruginosa” value (P. aeruginosa; 1×MIC, 300 min) was 0 CFU/mL and the “time within which all P. aeruginosa were killed” value (P. aeruginosa; 2×MIC (8 μM)) was at most 30 min. For the same compound, the “survival number of P. aeruginosa” value (P. aeruginosa; 2×MIC, 0 min) was 186000 CFU/mL and 136000 CFU/mL and 132000 CFU/mL, the “survival number of P. aeruginosa” value (P. aeruginosa; 2×MIC, 30 min) was 0 CFU/mL and the “survival number of P. aeruginosa” value (P. aeruginosa; 2×MIC, 60 min) was 0 CFU/mL. The “survival number of P. aeruginosa” value (P. aeruginosa; 2×MIC, 120 min) was 0 CFU/mL, the “survival number of P. aeruginosa” value (P. aeruginosa; 2×MIC, 180 min) was 0 CFU/mL and the “survival number of P. aeruginosa” value (P. aeruginosa; 2×MIC, 240 min) was 0 CFU/mL. For the same compound, the “bactericidal rate against P. aeruginosa compared with gentamicin” value (P. aeruginosa; compared with gentamicin) was “faster bactericidal rate”, the “time within which all S. aureus were killed” value (S. aureus; 1×MIC (4 μM)) was at most 360 min and the “survival number of S. aureus” value (S. aureus; 1×MIC, 300 min) was 2000 CFU/mL. For the same compound, the “survival number of S. aureus” value (S. aureus; 1×MIC, 360 min) was 0 CFU/mL, the “time within which all S. aureus were killed” value (S. aureus; 2×MIC (8 μM)) was at most 360 min and the “survival number of S. aureus” value (S. aureus; 2×MIC, 360 min) was 0 CFU/mL. The “bactericidal rate against S. aureus compared with gentamicin” value (S. aureus; compared with gentamicin) was “no significant difference in the bactericidal rate”, the “removal effect on the formed biofilm” value ([1]; concentration 4 μM) was 32.16% and 56.39% and 56.88% and the “removal effect on the formed biofilm” value ([1]; concentration 8 μM) was 28.16% and 29.51% and 42.64%. The anti-biofilm activity ([1]; mixed biofilm) was “good and direct anti-biofilm activity”, the “concentration at which more than 50% of biofilm is removed” value ([1]; mixed biofilm) was 8 μm and the “concentration at which more than 50% of the biofilm is removed” value ([1]; mixed biofilm) was 8 µM. For the same compound, the “number of Pseudomonas aeruginosa colonized in the catheter” value [4] was “significantly reduced”, the “number of Staphylococcus aureus colonized in the catheter” value [5] was “significantly reduced” and the “IL-6 content in the skin tissue at the infected site” value (IL-6; Biofilm + Z4) was 110.6228 pg/g and 89.73 pg/g and 91.09 pg/g and 95.94 pg/g and 137.9124 pg/g and 127.2606 pg/g and 88.31 pg/g and 94.64 pg/g. For the same compound, the “level of IL-6 in the skin tissue” value (IL-6; versus PBS control) was “reduced”, the “number of infiltrated inflammatory cells” value (inflammatory cells) was “reduced” and the “MIC after proteinase K treatment” value ([6]; 2 h) was 8 µM (≈ 11.7 µg/mL). For the same compound, the “decrease of antimicrobial activity due to hydrolysis by proteinase K” value ([6]; proteinase K treatment, 90 minutes) was 50% and the “MIC before increase under proteinase K treatment” value ([6]; proteinase K treatment, before 90 minutes) was 4 µM (≈ 5.84 µg/mL).
